Where “and” joins values, the source holds several entries; their conditions need not be identical. Equal values may be shown once. Where a name gives a salt, the structure may show the parent alone.
Columns and labels:
MCF-7-ADR = experiment: MTT cytotoxic activity against drug-resistant tumor cell line; format: cell-based, Human; settings: for IC50: NCI/ADR-RES, doxorubicin-resistant human breast cancer cells, 48 hours incubation, MTT, Bliss method
Procedure: Purpose: Compare differences of cytotoxic activity against drug-resistant tumor cell lines between gemcitabine derivatives (Compounds of examples 1-9 of the present invention) and gemcitabine (known compound, as “comparative example” in the table below).
Materials and Methods: Human breast cancer doxorubicin-resistant cell line MCF-7-ADR was cultured in 1640 medium containing 5% fetal calf serum; gemcitabine and its derivative GI-06 were dissolved in DMSO, frozen preserved at −20° C., and diluted by 1640 medium containing 5% fetal calf serum to the appropriate concentration before they were used. The final concentration of DMSO solution was 0.5%. Activity tests: MCF-7-ADR cells in the logarithmic growth phase were seeded 3×10^3 per well in 96-well culture plates. The medium was changed after incubating for 24 hours by adding test solutions at different concentrations, while the control group was added DMSO medium with concentration of 0.5%, and the cells continued to be incubated for 48 hours. Then the cell activity was assayed by MTT. Inhibition rate (%)=([…](absorbance of the blank control group−absorbance of the administration group)/absorbance of the blank control group)×100%; IC50: calculated by Bliss method.

HCT-116 colon cancer = experiment: Growth of subcutaneous transplanted tumor in nude mice bearing HCT-116 colon cancer
Text: Purpose: 4 compounds' influence to the growth of subcutaneous transplanted tumor in nude mice bearing HCT-116 colon cancer
Positive control: Gemcitabine hydrochloride.
Experimental animals: Nude mice, female, 4-5 weeks old, 60 cases.
Cell lines: HCT-116 colon cancer cell.
Modeling: Five mice were inoculated by cell suspension before the experiment, after passaging 4 times in nude mice, prepared model by subcutaneous inoculation using the interpolation block tumor masses.
Route of administration: Gemcitabine hydrochloride group was adminstered by intraperitoneal injection, the rest groups were adminstered by oral gavage.
The adminstered volume: 0.1 ml/10 g
Observation time: Consecutive observation for 15 days after administration, tumor volume was measured twice a week. Stop administration at the 15th day.

A2780 ovarian cancer = experiment: Growth of subcutaneous transplanted tumor in nude mice bearing A2780 ovarian cancer
Text: Test sample: GI-06; Positive control: gemcitabine hydrochloride
Experimental animals: nude mice, female, 4-5 weeks old, 40 cases.
Cell lines: A2780 ovarian cancer cell, purchased from Shanghai institute of cell biology.
Grouping: When tumor volume grew to 100 mm^3, nude mice which reached standard were randomly divided into five groups, namely solvent control group, gemcitabine hydrochloride group, GI-06 high, medium, low dosage groups, 6 nude mice in each group.
The administration volume: 0.1 ml/10 g
Frequency of administration: Gemcitabine hydrochloride was respectively adminstered twice in the first and third week (D1, D4, D15, D18), 4 times in total; Each GI-06 dosage group was adminstered once a day, 21 days in total.
Animals were sacrificed on the 22nd day, the tumors were weighed.
Statistical Methods: Excel statistical software package, ANOVA analysis.

[1] = 15 mg/kg oral gavage, five consecutive days a week, 10 times in total
[2] = 160 mg/kg intraperitoneal injection, D1, D4, D15, D18
[3] = high dosage 12 mg/kg oral gavage once a day, 21 days
[4] = low dosage 4 mg/kg oral gavage once a day, 21 days
[5] = medium dosage 8 mg/kg oral gavage once a day, 21 days
[6] = low dosage 5 mg/kg oral gavage, 12 times in total
[7] = medium dosage 10 mg/kg oral gavage, 12 times in total
[8] = 160 mg/kg intraperitoneal injection, D1 and D4, twice in total

| Compound | IC50 (MCF-7-ADR) [µM] | T/C (%) D15 (HCT-116 colon cancer; [1]) | Tumor volume (mm^3) D15 (HCT-116 colon cancer; [1]) | Weight (g) D15 (HCT-116 colon cancer; [1]) [g] | also measured |
| --- | --- | --- | --- | --- | --- |
| CC(C)(C)c1cnc(CSc2cnc(NC(=O)CCCC(=O)Nc3ccn([C@@H]4O[C@H](CO)[C@@H](O)C4(F)F)c(=O)n3)s2)o1 [GI-04, N-(5-(((5-(t-butyl)oxazol-2-yl)methyl)thio)thiazol-2-yl)-N′-(1-((2R,4R,5R)-3,3-difluoro-4-hydroxy-5-(hydroxymethyl)tetrahydrofuran-2-yl)-2-oxo-1,2-dihydro-pyrimidin-4-yl)glutaramide] | 3.15 | 60.9% | 1008.78 ± 174.29 mm^3 | 19.9 ± 1.2 |  |
| CC(C)(C)c1cnc(CSc2cnc(NC(=O)CCCCCCCCC(=O)Nc3ccn([C@@H]4O[C@H](CO)[C@@H](O)C4(F)F)c(=O)n3)s2)o1 [GI-09, N-(5-(((5-(t-butyl)oxazol-2-yl)methyl)thio)thiazol-2-yl)-N′-(1-((2R,4R,5R)-3,3-difluoro-4-hydroxy-5-(hydroxymethyl)tetrahydrofuran-2-yl)-2-oxo-1,2-dihydro-pyrimidin-4-yl)sebacamide] | 2.66 | 43.26% | 724.50 ± 158.19 mm^3 | 18.6 ± 1.4 |  |
| Nc1ccn([C@@H]2O[C@H](CO)[C@@H](O)C2(F)F)c(=O)n1 [gemcitabine] | > 10 |  |  |  | T/C (%) D22 (A2780 ovarian cancer; [2]): 1.32% |
| CC(C)(C)c1cnc(CSc2cnc(NC(=O)CCC(=O)Nc3ccn([C@@H]4O[C@H](CO)[C@@H](O)C4(F)F)c(=O)n3)s2)o1 [GI-03, N-(5-(((5-(t-butyl)oxazol-2-yl)methyl)thio)thiazol-2-yl)-N′-(1-((2R,4R,5R)-3,3-difluoro-4-hydroxy-5-(hydroxymethyl)tetrahydrofuran-2-yl)-2-oxo-1,2-dihydro-pyrimidin-4-yl)succinamide] | 6.13 |  |  |  |  |
| CC(C)(C)c1cnc(CSc2cnc(NC(=O)CC(=O)Nc3ccn([C@@H]4O[C@H](CO)[C@@H](O)C4(F)F)c(=O)n3)s2)o1 [GI-02, N-(5-(((5-(t-butyl)oxazol-2-yl)methyl)thio)thiazol-2-yl)-N′-(1-((2R,4R,5R)-3,3-difluoro-4-hydroxy-5-(hydroxymethyl)tetrahydrofuran-2-yl)-2-oxo-1,2-dihydro-pyrimidin-4-yl)malonamide] | 4.77 |  |  |  |  |
| CC(C)(C)c1cnc(CSc2cnc(NC(=O)CCCCCCC(=O)Nc3ccn([C@@H]4O[C@H](CO)[C@@H](O)C4(F)F)c(=O)n3)s2)o1 [GI-07, N-(5-(((5-(t-butyl)oxazol-2-yl)methyl)thio)thiazol-2-yl)-N′-(1-((2R,4R,5R)-3,3-difluoro-4-hydroxy-5-(hydroxymethyl)tetrahydrofuran-2-yl)-2-oxo-1,2-dihydro-pyrimidin-4-yl)suberamide] | 3.55 |  |  |  |  |
| CC(C)(C)c1cnc(CSc2cnc(NC(=O)CCCCCC(=O)Nc3ccn([C@@H]4O[C@H](CO)[C@@H](O)C4(F)F)c(=O)n3)s2)o1 [GI-06, N-(5-(((5-(t-butyl)oxazol-2-yl)methyl)thio)thiazol-2-yl)-N′-(1-((2R,4R,5R)-3,3-difluoro-4-hydroxy-5-(hydroxymethyl)tetrahydrofuran-2-yl)-2-oxo-1,2-dihydro-pyrimidin-4-yl)pimelamide] | 1.38 | 12% and 12.64% | 208.14 ± 80.53⋆ mm^3 | 18.0 ± 1.5 | inhibitory activity against MCF-7-ADR proliferation (in words) (MCF-7-ADR; compared with gemcitabine): strongest anti-tumor activity; T/C (%) D22 (A2780 ovarian cancer; [3]): 0.46%; Tumor volume (mm^3) D22 (A2780 ovarian cancer; [3]): 19.83 ± 35.11^⋆ mm^3; T/C (%) D22 (A2780 ovarian cancer; [4]): 39.55%; Tumor volume (mm^3) D22 (A2780 ovarian cancer; [4]): 1757.57 ± 1306.74^⋆ mm^3; T/C (%) D22 (A2780 ovarian cancer; [5]): 2.11%; Tumor volume (mm^3) D22 (A2780 ovarian cancer; [5]): 92.38 ± 159.91^⋆ mm^3; T/C (%) D15 (HCT-116 colon cancer; [6]): 27% and 27.50%; Tumor volume (mm^3) D15 (HCT-116 colon cancer; [6]): 45.172 ± 214.92⋆ mm^3; Weight (g) D15 (HCT-116 colon cancer; [6]): 17.2 ± 0.8 g; T/C (%) D15 (HCT-116 colon cancer; [7]): 13% and 13.09%; Tumor volume (mm^3) D15 (HCT-116 colon cancer; [7]): 222.43 ± 113.48⋆ mm^3; Weight (g) D15 (HCT-116 colon cancer; [7]): 17.5 ± 1.1 g |
| Nc1ccn([C@@H]2O[C@H](CO)[C@@H](O)C2(F)F)c(=O)n1 [Gemcitabine hydrochloride, reference compound] |  |  |  |  | Tumor volume (mm^3) D22 (A2780 ovarian cancer; [2]): 59.97 ± 72.33^⋆ mm^3; Tumor volume (mm^3) D15 (HCT-116 colon cancer; [8]): 99.90 ± 55.92⋆ mm^3; Weight (g) D15 (HCT-116 colon cancer; [8]): 20.0 ± 1.5 g; T/C (%) D15 (HCT-116 colon cancer; 160 mg/kg intraperitoneal injection, D1 and D4, twice in total, hydrochloride): 5.83%; T/C (%) D15 (HCT-116 colon cancer; 160 mg/kg intraperitoneal injection, D1 and D4, twice in total, listed as gemcitabine hydrochloride, hydrochloride): 5.8% |
| CC(C)(C)c1cnc(CSc2cnc(NC(=O)CCCCCCCC(=O)Nc3ccn([C@@H]4O[C@H](CO)[C@@H](O)C4(F)F)c(=O)n3)s2)o1 [GI-08, N-(5-(((5-(t-butyl)oxazol-2-yl)methyl)thio)thiazol-2-yl)-N′-(1-((2R,4R,5R)-3,3-difluoro-4-hydroxy-5-(hydroxymethyl)tetrahydrofuran-2-yl)-2-oxo-1,2-dihydro-pyrimidin-4-yl)azelamide] | 3.29 |  |  |  |  |
| CC(C)(C)c1cnc(CSc2cnc(NC(=O)CCCCC(=O)Nc3ccn([C@@H]4O[C@H](CO)[C@@H](O)C4(F)F)c(=O)n3)s2)o1 [GI-05, N-(5-(((5-(t-butyl)oxazol-2-yl)methyl)thio)thiazol-2-yl)-N′-(1-((2R,4R,5R)-3,3-difluoro-4-hydroxy-5-(hydroxymethyl)tetrahydrofuran-2-yl)-2-oxo-1,2-dihydro-pyrimidin-4-yl)adipamide] | 2.46 | 56.14% | 935.14 ± 130.33 mm^3 | 18.1 ± 1.2 |  |
| CC(C)(C)c1cnc(CSc2cnc(NC(=O)C(=O)Nc3ccn([C@@H]4O[C@H](CO)[C@@H](O)C4(F)F)c(=O)n3)s2)o1 [GI-01, N-(5-(((5-(t-butyl)oxazol-2-yl)methyl)thio)thiazol-2-yl)-N′-(1-((2R,4R,5R)-3,3-difluoro-4-hydroxy-5-(hydroxymethyl)tetrahydrofuran-2-yl)-2-oxo-1,2-dihydro-pyrimidin-4-yl)oxamide] | 5.56 |  |  |  |  |

From patent publication US9944670B2, “Gemcitabine derivatives, compositions comprising same and pharmaceutical applications thereof” (HANGZHOU MINSHENG INSTITUTES FOR PHARMA RESEARCH CO., LTD, priority 2013, dated 2018)
